From patent EP3818828A1 (priority 2019, dated 2021)

Key:
[1] = test system: Botryosphaeria berengeriana; assay: Ex vivo mycelial growth inhibition, growth rate method; assay type: cell-based; settings: 1 mg/mL
Description: (§1) 3-(3',4'-methylenedioxy phenyl)-N-n-propyl acrylamide (at a purity of 99%), 3-(3',4'-methylenedioxy phenyl)-piperidine acrylate (at a purity of 99%), the control agents, 96.5% of chlorothalonil technical (non-systemic broad-spectrum fungicide), 97.2% of carbendazim technical (systemic broad-spectrum fungicide), 97.0% of procymidone technical (systemic fungicide), 96.0% of dimethomorphtechnical ((E,Z)-4-[3-(4-chlorphenyl)3-(3,4-dimethoxy phenyl)acryloyl]morpholine, systemic fungicide), 97.0% of azoxystrobin technical (systemic broad-spectrum fungicide).
(§2) The inhibition of samples for testing on the mycelial growth of plant pathogenic fungi for testing is determined with a growth rate method. 3-(3',4'-methylenedioxy phenyl)-N-n-propyl acrylamide, 3-(3',4'-methylenedioxy phenyl)-piperidine acrylate and five control agents are dissolved with dimethyl sulfoxide (DMSO), then formulated at 5-7 concentrations of different gradients for test following the trial test results, with the same concentration of DMSO as the control solvent, each treatment in triplicate. Fungal cakes with a diameter of 4 mm are taken from the edge of the colony, inoculated into the center of a PDA plate containing different agents of different concentrations and the DMSO control, with one piece of fungal cake inoculated in each plate (with a diameter of […]), and incubated in a constant temperature incubator at a temperature of 22±1.5°C. 7 days later (10-20 days may be needed for some pathogenic fungi), the diameter of the colony is measured with a cross over method according to the mycelial growth profile of the control pathogenic fungi, then the inhibition rate of mycelial growth is calculated.
(§3) The computational formula is as below: the inhibition rate of mycelial growth (%) = [(the diameter of the control colony - the diameter of the treated colony)/the diameter of the control colony] × 100.
(§4) The inhibition results of each agent at a concentration of 1 mg/mL on the mycelial growth of plant pathogenic fungi are shown in Tables 1 and 2.

[2] = test system: Botryosphaeriana berengeriana; assay: as above; assay type: cell-based; settings: 1 mg/mL
Description: as §1, §2, §3, §4

Botrytis cinerea = assay: as above; assay type: cell-based; settings: 1 mg/mL
Description: as §1, §2, §3, §4

C. gossypii = assay: as above; assay type: cell-based; settings: 1 mg/mL; for Average Diameter of the Colony: C. gossypii; for inhibition at 1000 µg/mL: Colletotrichum gossypii, C. cossypii, read-out: Inhibition Rate
Description: as §1, §2, §3, §4

Colletotrichum capsici = assay: as above; assay type: cell-based; settings: 1 mg/mL; for inhibition at 1000 µg/mL: Colletotrichum truncatum
Description: as §1, §2, §3, §4

Coniella diplodiella = assay: as above; assay type: cell-based; settings: 1 mg/mL
Description: as §1, §2, §3, §4

Exserohilum turcicum = assay: as above; assay type: cell-based; settings: 1 mg/mL
Description: as §1, §2, §3, §4

F. oxysporum f. sp. lini = assay: as above; assay type: cell-based; settings: 1 mg/mL; for inhibition at 1000 µg/mL: Fusarium oxysporum
Description: as §1, §2, §3, §4

[3] = test system: F. oxysporum f. sp. vasinfectum; assay: as above; assay type: cell-based; settings: 1 mg/mL; for inhibition at 1000 µg/mL: Fusarium oxysporum
Description: as §1, §2, §3, §4

F. verticillioide = assay: as above; assay type: cell-based; settings: 1 mg/mL
Description: as §1, §2, §3, §4

[4] = test system: Gaeumannomyces graminis var. graminis and G. graminis var. tritici; assay: as above; assay type: cell-based; settings: 1 mg/mL
Description: as §1, §2, §3, §4

Mycosphaerlla melonis = assay: as above; assay type: cell-based; settings: 1 mg/mL
Description: as §1, §2, §3, §4

Phytophthora capsici = assay: as above; assay type: cell-based; settings: for Average Diameter of the Colony / inhibition at 1000 µg/mL: Phytophthora capsici, 1 mg/mL; for antifungal activity against Phytophthora capsici: supplementary determination, compared with hymexazol
Description: as §1, §2, §3, §4

Pythium aphanidermatum = assay: as above; assay type: cell-based; settings: 1 mg/mL
Description: as §1, §2, §3, §4

Rhizoctonia solani = assay: as above; assay type: cell-based; settings: for Average Diameter of the Colony / inhibition at 1000 µg/mL: Rhizoctonia solani, 1 mg/mL
Description: as §1, §2, §3, §4

Sclerotinia sclerotiorum = assay: as above; assay type: cell-based; settings: 1 mg/mL
Description: as §1, §2, §3, §4

Thanatephorus cucumeris = assay: as above; assay type: cell-based; settings: 1 mg/mL
Description: as §1, §2, §3, §4

Valsa mali = assay: as above; assay type: cell-based; settings: 1 mg/mL; for inhibition at 1000 µg/mL: Cytospora mali
Description: as §1, §2, §3, §4

E. cichoracearum = assay: Field efficiency test, cucumber powdery mildew; assay type: in vivo; settings: 0.50 mg/mL (active ingredients)
Procedure: The formulation of emulsifiable concentrate is the same as that in Embodiment 3.
10% of 3-(3',4'-methylenedioxy phenyl)-N-n-propyl acrylamide EC and 14% of 3-(3',4'-methylenedioxy phenyl)-piperidine acrylate EC were diluted at a concentration of 0.50 mg/mL (2000 fold liquid of active ingredients); the control agent, 10% of dimethomorph EW, was also diluted at a concentration of 0.50 mg/mL (2000 fold liquid of active ingredients); the control agent, 80% of mancozeb WP, was diluted at a concentration into a 500 fold liquid according to the usage amount of the formulation; the control agents, 12.5% of myclobutanil EC, 25% of propiconazole EC, 430 g/L of tebuconazole SC, 10% of hexaconazole EC and 37% of difenoconazole EC were all diluted at a concentration into 1500 fold liquids according to the usage amount of the formulation; additionally clear water was used as the control. The first application was started on June 15th, and E. cichoracearum was inoculated on June 17th (the sick leaves were harvested from the solar greenhouse near the military airfield at Xiaguanying town, Yuzhong County, moisturized in the greenhouse for 2 days, then shreded, and filtered over a gauze, the filtrate was sprayed onto both sides of the cucumber leaves with the cone nozzle of an electric sprayer for inoculation). […]

SMILES	Average Diameter of the Colony [1] [cm]	inhibition at 1000 µg/mL [1] [%]	Average Diameter of the Colony [2] [cm]	inhibition at 1000 µg/mL [2] [%]	Average Diameter of the Colony (Botrytis cinerea) [cm]	inhibition at 1000 µg/mL (Botrytis cinerea) [%]	Average Diameter of the Colony (C. gossypii) [cm]	inhibition at 1000 µg/mL (C. gossypii) [%]	Average Diameter of the Colony (Colletotrichum capsici) [cm]	inhibition at 1000 µg/mL (Colletotrichum capsici) [%]	Average Diameter of the Colony (Coniella diplodiella) [cm]	inhibition at 1000 µg/mL (Coniella diplodiella) [%]	Average Diameter of the Colony (Exserohilum turcicum) [cm]	inhibition at 1000 µg/mL (Exserohilum turcicum) [%]	Average Diameter of the Colony (F. oxysporum f. sp. lini) [cm]	inhibition at 1000 µg/mL (F. oxysporum f. sp. lini) [%]	Average Diameter of the Colony [3] [cm]	inhibition at 1000 µg/mL [3] [%]	Average Diameter of the Colony (F. verticillioide) [cm]	inhibition at 1000 µg/mL (F. verticillioide) [%]	further results
CCCNC(=O)/C=C/c1ccc2c(c1)OCO2 [3-(3',4'-methylenedioxyphenyl)-N-n-propyl acrylamide]	3.60	47.1	4.63	18.8	1.35	82	1.74	67.8	1.66	75.5	0.00	100	1.44	76.8	6.30	30	3.03	58.1	2.94	13	Average Diameter of the Colony [4]: 3.05 cm; inhibition at 1000 µg/mL [4]: 57.3%; Average Diameter of the Colony (Mycosphaerlla melonis): 0.58 cm; inhibition at 1000 µg/mL (Mycosphaerlla melonis): 93.3%; Average Diameter of the Colony (Phytophthora capsici): 0.65 cm; inhibition at 1000 µg/mL (Phytophthora capsici): 87.7%; antifungal activity against Phytophthora capsici (Phytophthora capsici): superior to that of the control agent, hymexazol; Average Diameter of the Colony (Pythium aphanidermatum): 0.21 cm; inhibition at 1000 µg/mL (Pythium aphanidermatum): 96.9%; Average Diameter of the Colony (Rhizoctonia solani): 0.25 cm; inhibition at 1000 µg/mL (Rhizoctonia solani): 96.5%; Average Diameter of the Colony (Sclerotinia sclerotiorum): 3.28 cm; inhibition at 1000 µg/mL (Sclerotinia sclerotiorum): 61.9%; Average Diameter of the Colony (Thanatephorus cucumeris): 3.51 cm; inhibition at 1000 µg/mL (Thanatephorus cucumeris): 59.2%; Average Diameter of the Colony (Valsa mali): 0.65 cm; inhibition at 1000 µg/mL (Valsa mali): 91.8%; Control Effect (E. cichoracearum): 88.38%
O=C(/C=C/c1ccc2c(c1)OCO2)N1CCCCC1 [3-(3',4'-methylenedioxyphenyl)-piperidine acrylate]	0.22	96.8	0.14	97.5	0.25	96.7	0.10	98.2	0.28	95.9	0.00	100	0.34	94.5	2.73	69.7	0.40	94.5	0.49	85.5	Average Diameter of the Colony [4]: 0.39 cm; inhibition at 1000 µg/mL [4]: 94.5%; Average Diameter of the Colony (Mycosphaerlla melonis): 0.00 cm; inhibition at 1000 µg/mL (Mycosphaerlla melonis): 100%; Average Diameter of the Colony (Phytophthora capsici): 0.00 cm; inhibition at 1000 µg/mL (Phytophthora capsici): 100%; antifungal activity against Phytophthora capsici (Phytophthora capsici): superior to that of the control agent, hymexazol; Average Diameter of the Colony (Pythium aphanidermatum): 0.06 cm; inhibition at 1000 µg/mL (Pythium aphanidermatum): 99.1%; Average Diameter of the Colony (Rhizoctonia solani): 0.00 cm; inhibition at 1000 µg/mL (Rhizoctonia solani): 100%; antifungal activity against Rhizoctonia solani (Rhizoctonia solani; supplementary determination, compared with chlorothalonil, dimethomorph and azoxystrobin): superior to that of chlorothalonil, dimethomorph and azoxystrobin; Average Diameter of the Colony (Sclerotinia sclerotiorum): 0.00 cm; inhibition at 1000 µg/mL (Sclerotinia sclerotiorum): 100%; Average Diameter of the Colony (Thanatephorus cucumeris): 0.00 cm; inhibition at 1000 µg/mL (Thanatephorus cucumeris): 100%; Average Diameter of the Colony (Valsa mali): 0.00 cm; inhibition at 1000 µg/mL (Valsa mali): 100%; Control Effect (E. cichoracearum): 69.84%
